Data published in paper PMC12520456, “Regulating Enzyme Activity via Microaggregates Mediated by Phase Separation” (Advanced Science, 2025).
Non-standard residues stand in square brackets, D forms with d. Residues, ends and D or L forms follow the SMILES beside them.

Experiments:
[1] = In vivo safety after intraperitoneal injection; design: species or system rat
From the text: For in vivo safety, rats receiving an intraperitoneal injection of DPMD were monitored for systemic toxicity and immune response. […] The heart and spleen likewise appeared normal, with no myocardial inflammation or splenic white pulp enlargement (Figure 5G,H). […] We acknowledge that longer‐term studies will be needed, but these initial results support the biosafety of DPMD as a therapeutic agent.
Figure 5 The favorable biosafety and biocompatibility of DPMD. A) The schematic diagram of therapeutic safety benefited from the DPMD. B&C) The blood corpuscle counting and immunotoxicity‐related blood biochemical indexes of rats treated with the DPMD or PBS using intraperitoneal administration. D) Hepatotoxicity measured by pathological section of liver, ALT (glutamic‐pyruvic transaminase), AST (glutamic‐oxalacetic transaminase), total bilirubin (TBIL) and inflammatory cytokines (IL‐6, TNF‐α, MCP‐1and NF‐κB) of liver. E) Nephrotoxicity test, including pathological section of kidney, CR (creatinine), BUN (Blood Urea Nitrogen), albumin (ALB) and inflammatory cytokines (IL‐6, TNF‐α, MCP‐1and NF‐κB) of kidney. […] G) Cardiotoxicity reflected by pathological section and inflammatory cytokines (IL‐6, TNF‐α, MCP‐1and NF‐κB) infiltrating in heart. H) The H&E staining of spleen sections, and IL‐6, TNF‐α, MCP‐1and NF‐κB cytokines were involved in safety detection of DPMD or PBS in spleen. The data from each group were presented as the mean ± SD. Scale bar: 100 µm. Statistical analysis in B‐G was performed using unpaired t‐test.

NIH-3T3 cells = assay type: cell-based; settings: 48 h
Method: (§1) and the product's absorbance at […] was dynamically and real-time monitored using a microplate […]
(§2) During the chymotrypsin activity assay, DPMD was incorporated into chymotrypsin. The final concentration of chymotrypsin was set at 10 μg/mL, and the final concentration of DPMD was 5 mg/mL. In the corresponding control group, an equal volume of the buffer solution prepared by the kit was added. Subsequently, the enzyme-peptide mixture was added to the reaction system containing the substrate N-Benzoyl-L-Tyrosine Ethyl Ester (BTEE) at a ratio of 1:100 (where the proportion of the enzyme-peptide mixture solution was 1) for the detection of enzyme activity. The reaction was carried out at 25 ℃, and the product's absorbance at 256 nm was dynamically and real-time monitored using a microplate reader. The experimental result was represented by the enzyme reaction's degree of completion. All the tests were repeated three independent times.
(§3) NIH-3T3 cells were obtained from the National Collection of Authenticated Cell Cultures. HUVECs were obtained from Procell. All cells were maintained in DMEM media at 37°C with 5% CO₂. […] Cell viability was evaluated by the CCK-8 assay (Dojindo) at 1-, 3-, 5-, and 7-days post-treatment. […] The absorbance at 450 nm was recorded using a microplate reader […]

HUVEC = assay type: cell-based; settings: 48 h
Method: as §1, §2, §3

Ca-binding assay = settings: peptide 0.625-30 mg/mL with 3 μg/mL Ca2+, 20 mM sodium phosphate buffer pH 7.4, 37 °C 30 min; supernatant calcium by kit; four independent repeats; Figure S1C
From the text: circular dichroism spectrum and molar ellipticity (kdeg·cm2/mol) on the y-axis.
3.3 Peptide Synthesis and DPMD Preparation
All peptides were synthetized according to the optimized HBTU activation/DIEA in situ neutralization protocol developed by […] on the CS bio 336X automated peptide synthesizer. Briefly, after cleavage and deprotection in a reagent cocktail containing 88% TFA, 5% phenol, 5% H2O and 2% TIPS, crude products were precipitated with cold ether and purified to homogeneity by preparative C18 reversed-phase HPLC. The molecular masses were ascertained by electrospray ionization mass spectrometry (ESI-MS). […]
0.22μm filter to remove residue. The calcium content of the supernatant was measured using the Calcium ion detection kit (Beyotime) according to the recommended method. […]
Peptide and enzyme solutions were prepared at varying concentrations and mixed at a 1:1 volume ratio. Solution turbidity was quantitatively assessed by monitoring absorbance at 405 nm using a BioTek spectrophotometer. For fluorescence-based characterization, peptides were labeled with FITC while enzymes were labeled with Cy5. […] For fluorescence recovery after photobleaching (FRAP) analysis, enzyme-aggregated patches were selectively bleached at 60% laser power using 488/640 nm lasers for 10 s, followed by time-lapse imaging at 1-min intervals. […]

[2] = intraperitoneal injection, 7 days post-treatment

Compound: CC[C@@H](C)[C@@H](NC(=O)[C@@H](CCC(N)=O)NC(=O)[C@H](NC(=O)[C@@H](Cc1ccc(O)cc1)NC(=O)CNC(=O)[C@@H](CC(C)C)NC(=O)[C@H](NC(=O)[C@@H](CO)NC(=O)CNC(=O)[C@@H](C)NC(=O)[C@@H](CC(=O)O)NC(=O)[C@@H](C)NC(=O)[C@@H](CCCNC(=N)N)NC(=O)[C@@H](C)NC(=O)[C@@H](CC(=O)O)NC(=O)[C@@H](C)NC(=O)[C@@H](CCCNC(=N)N)NC(=O)[C@@H](C)NC(=O)[C@@H](CC(=O)O)NC(=O)[C@@H](C)NC(=O)[C@@H](CCCNC(=N)N)NC(=O)[C@@H](C)NC(=O)[C@@H](CC(=O)O)NC(=O)[C@@H](C)NC(=O)[C@H](N)CCCNC(=N)N)C(C)C)[C@H](C)CC)C(=O)N[C@H](CCCNC(=N)N)C(=O)O [DPMD, Ac‐(D‐RADA)4‐CONH2] (H-[dR][dA][dD][dA][dR][dA][dD][dA][dR][dA][dD][dA][dR][dA][dD][dA]G[dS][dV][dL]G[dY][dI][dQ][dI][dR]-OH; N-terminus and C-terminus assumed)
- blood cell counts (red and white cells, platelets) [1, 2]: remained within normal limits
- liver function tests (ALT, AST, total bilirubin) and kidney function markers (creatinine, BUN, albumin) [1, 2]: no signs of organ damage or dysfunction
- serum pro-inflammatory cytokine levels (IL-6, TNF-α, MCP-1, NF-κB) [1, 2]: indistinguishable from saline‐treated controls
- histopathological examination of major organs ([1]; liver, kidney, lung, heart, spleen, H&E): no microscopic evidence of toxicity
- cell viability (NIH-3T3 cells): > 90%
- cell viability (HUVEC): > 90%
- Ca^2+ binding capacity (Ca-binding assay): clear binding affinity
